Reference: publication PMC12177912, “A Geranylated Natural Product Simamycin Disrupts the Allosteric Catalysis of tRNA-2-selenouridine Synthase SelU” (Biochemistry, 2025)

Molecular target: T1, tRNA-2-selenouridine synthase (SelU, MnmH) (Escherichia coli, UniProt Q0TKD8)
T1 construct: M1-A172 (N-terminal rhodanese domain; tags removed with TEV)
Experiment: intrinsic tryptophan fluorescence quenching titration (Kd at […] °C; […] at […] °C, […] at […] °C, […] at […] °C); STD NMR
Assay type: binding

T1 sequence (Q0TKD8 1-172): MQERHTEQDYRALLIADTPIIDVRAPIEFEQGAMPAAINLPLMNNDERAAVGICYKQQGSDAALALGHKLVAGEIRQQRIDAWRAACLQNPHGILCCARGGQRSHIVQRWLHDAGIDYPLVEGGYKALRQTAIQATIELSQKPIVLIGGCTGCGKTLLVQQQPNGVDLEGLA

CC(C)=CCC/C(C)=C/COC[C@H]1O[C@@H](n2ccc(=O)[nH]c2=O)[C@H](O)[C@@H]1O [simamycin]
Kd: 29.9 µM
